According to ChEMBL document CHEMBL1142424, “Octanorcucurbitane and cucurbitane triterpenoids from the tubers of Hemsleya endecaphylla with HIV-1 inhibitory activity” (J Nat Prod, 2008):
≈ marks a conversion by molar mass, not a printed value.

What was measured:
[1] = Selectivity index, ratio of CC50 for human C8166 cells to EC50 for HIV1; type: functional
[2] = tested on: Human immunodeficiency virus 1; experiment: Antiviral activity against HIV1 in C8166 cells after 72 hrs; type: functional, organism-based; settings: Human immunodeficiency virus 1, C8166, 72 h
[3] = Cytotoxicity against human C8166 cells by MTT method; type: cell-based

Compound | Ratio CC50/EC50 [1] | EC50 [2] [mg/L] | CC50 [3] [mg/L]
CC(C)(O)/C=C/C[C@@](C)(O)[C@H]1[C@H](O)C[C@@]2(C)[C@@H]3CC=C4[C@@H](C[C@H](O)C(=O)C4(C)C)[C@]3(C)C(=O)C[C@]12C | 7.7 | 15.8 (≈ 31.4 µM) | 121 (≈ 241 µM)
CC(=O)OC(C)(C)CCC(=O)[C@](C)(O)[C@H]1[C@H](O)C[C@@]2(C)[C@@H]3CC=C4[C@@H](C=C(O)C(=O)C4(C)C)[C@]3(C)C(=O)C[C@]12C | 9.2 | 2.4 (≈ 4.3 µM) | 21.6 (≈ 38.7 µM)
CC(C)(O)CCC(=O)[C@@](C)(O)[C@H]1[C@H](O)C[C@@]2(C)[C@@H]3CC=C4[C@@H](C[C@H](O)C(=O)C4(C)C)[C@]3(C)C(=O)C[C@]12C | 50 | 0.13 (≈ 0.251 µM) | 6.5 (≈ 12.5 µM)
CC(=O)OC(C)(C)CCC(=O)[C@](C)(O)[C@H]1[C@H](O)C[C@@]2(C)[C@@H]3CC=C4[C@@H](C[C@H](O)C(=O)C4(C)C)[C@]3(C)C(=O)C[C@]12C [23,24-DIHYDROCUCURBITACIN B] | 6.1 | 4.2 (≈ 7.49 µM) | 25.5 (≈ 45.5 µM)
CC(=O)OC(C)(C)/C=C/C(=O)[C@](C)(O)[C@H]1[C@H](O)C[C@@]2(C)[C@@H]3CC=C4[C@@H](C[C@H](O)C(=O)C4(C)C)[C@]3(C)C(=O)C[C@]12C [CUCURBITACIN B] |  |  | 1.5 (≈ 2.68 µM)
CC(=O)OC(C)(C)/C=C/C(=O)[C@](C)(O)[C@H]1[C@H](O)C[C@@]2(C)[C@@H]3CC=C4[C@H](C[C@H](O)C(=O)C4(C)C)[C@]3(C)C(=O)C[C@]12C [CUCURBITACIN B] | 16.7 | 0.09 (≈ 0.161 µM) | 
CC(C)(O)/C=C/C(=O)[C@](C)(O)[C@H]1[C@H](O)C[C@@]2(C)[C@@H]3CC=C4[C@@H](C=C(O)C(=O)C4(C)C)[C@]3(C)C(=O)C[C@]12C [CUCURBITACIN I] | 20.6 | 0.7 (≈ 1.36 µM) | 14.4 (≈ 28 µM)
CC1(C)C(=O)[C@@H](O)C[C@@H]2C1=CC[C@@H]1[C@@]2(C)C(=O)C[C@]2(C)CC(=O)C[C@@]12C [ENDECAPHYLLACIN A] | >6.3 | 31.6 (≈ 88.2 µM) | > 200
CC1(C)C(=O)C(O)=C[C@@H]2C1=CC[C@@H]1[C@@]2(C)C(=O)C[C@]2(C)CC(=O)C[C@@]12C [ENDECAPHYLLACIN B] | 5 | 12 (≈ 33.7 µM) | 62 (≈ 174 µM)
Cc1cn([C@H]2C[C@H](N=[N+]=[N-])[C@@H](CO)O2)c(=O)[nH]c1=O [ZIDOVUDINE] | >50000 | 0.0034 (≈ 0.0127 µM) | > 200
